Data reported in patent US12351571B2, “Substituted quinoxaline compounds as inhibitors of FGFR tyrosine kinases” (ARRAY BIOPHARMA INC., priority 2018, dated 2025).

Columns and labels:
[1] = biological target: dephosphorylated FGFR2 (Homo sapiens (Human), UniProt P21802); experiment: FGFR Enzyme Binding Assay (HTRF tracer displacement), FGFR2; details: 5 nM dephosphorylated FGFR2, 60 minute incubation at 22° C.; read-out: FGFR2 Enz Binding IC50
Protocol: The potency of compounds inhibiting human isoforms of FGFR kinase was determined using Life Technologies' Homogeneous Time Resolved Fluorescence (HTRF)-based binding assay technology. An incubation was conducted with either 5 nM dephosphorylated FGFR1 (Array Biopharma, p1702; SEQ ID NO: 1, amino acids 458 to 765, dephosphorylated by co-expression with PTP1b (protein tyrosine phosphatase 1B)), 5 nM dephosphorylated FGFR2 (Life Technologies, Cat. No. PV4106 that had been dephosphorylated with Lambda protein phosphatase (New England Biolabs, cat #P0753)) or 5 nM phosphorylated FGFR3 (Array Biopharma, p1836; SEQ ID NO: 5, amino acids 449 to 759), 50 nM Kinase Tracer 236 (Life Technologies Cat. No. PR9078A), 2 nM Biotin-anti-6HIS (Life Technologies Cat. No. PV6090) and 2 nM Europium-Streptavidin (Life Technologies Cat. No. PV6025) along with test compound in a buffer consisting of 50 mM HEPES ((4-(2-hydroxyethyl)-1-piperazineethanesulfonic acid, pH 7.5), 5 mM MgCl2, 0.005% Triton X-100, 1 mM DTT, 1 mM NaVO4 and 2% DMSO in a final volume of 12 μL Compounds were typically prepared as a 3-fold or 4-fold serial dilution in DMSO and added to the assay to give the appropriate final concentration. After a 60 minute incubation at 22° C., the extent of tracer displacement was determined using a PerkinElmer EnVision multimode plate reader via HTRF dual wavelength detection, and the percent of control (POC) was calculated using a ratiometric emission factor. One hundred POC was determined using no test compound, and 0 POC was determined in the presence of 1 μM of an appropriate control inhibitor. A 4-parameter logistic curve was fit to the POC values as a function of the concentration of compound, and the IC50 value was the point where the best-fit curve crossed 50 POC.

[2] = biological target: human wild type FGFR2 (Homo sapiens (Human), UniProt P21802); experiment: FGFR2 pFGFR Cell Assay; type: cell-based; details: HEK-293 cells, 1 hour compound, 30 ng/ml human FGF-acidic, ELISA
Protocol: (§1) HEK-293 cells transfected with dox-inducible human wild type FGFR2 (SEQ ID NO: 3) were plated in a collagen or poly-D-lysine coated 96 well flat bottom plates at 4×10^5 cells/well in complete DMEM medium containing 10% FBS and 1 μg/ml doxycycline and allowed to attach for 24 h at 37° C., 5% CO2. Cells were treated with compound using 1:3 serial dilutions with a maximum final concentration of 5 μM. Compound was incubated on cells for 1 hour at 37° C., 5% CO2. Cells were then stimulated with a final concentration of 30 ng/ml human FGF-acidic (R&D Systems Cat number 232-FA/CF) for 5 minutes at 37° C., 5% CO2. Medium was removed and cells were lysed with lysis buffer containing phosphatase and protease inhibitors. Phospho FGFR2 was measured by ELISA (R&D Systems cat. no. DYC684). The ELISA captures total FGFR2 and detects total phospho tyrosine. Optical density was measured for each well using a Versamax reader at a wavelength of 450 nm. 100 POC was determined using no test compounds and 0 POC was determined using a control compound. The POC values were fit to a 4-parameter logistic curve as a function of the concentration of the compound, and the IC50 value is the point where the curve crosses 50 POC.

[3] = biological target: human wild type FGFR3 (Homo sapiens (Human), UniProt P22607); experiment: FGFR3 pFGFR Cell Assay; type: cell-based; details: HEK-293 cells, 1 hour compound, 100 ng/ml human FGF-acidic, ELISA
Protocol: as §1, with “FGFR3” for “FGFR2”, “5)” for “3)”, “top” for “maximum”, “100” for “30”, “FGF-acidic” for “FGF-acidic (R&D Systems Cat number 232-FA/CF)”, “cat DYC2719).” for “cat. no. DYC684).”

Chain of human wild type FGFR3 (P22607 23-806): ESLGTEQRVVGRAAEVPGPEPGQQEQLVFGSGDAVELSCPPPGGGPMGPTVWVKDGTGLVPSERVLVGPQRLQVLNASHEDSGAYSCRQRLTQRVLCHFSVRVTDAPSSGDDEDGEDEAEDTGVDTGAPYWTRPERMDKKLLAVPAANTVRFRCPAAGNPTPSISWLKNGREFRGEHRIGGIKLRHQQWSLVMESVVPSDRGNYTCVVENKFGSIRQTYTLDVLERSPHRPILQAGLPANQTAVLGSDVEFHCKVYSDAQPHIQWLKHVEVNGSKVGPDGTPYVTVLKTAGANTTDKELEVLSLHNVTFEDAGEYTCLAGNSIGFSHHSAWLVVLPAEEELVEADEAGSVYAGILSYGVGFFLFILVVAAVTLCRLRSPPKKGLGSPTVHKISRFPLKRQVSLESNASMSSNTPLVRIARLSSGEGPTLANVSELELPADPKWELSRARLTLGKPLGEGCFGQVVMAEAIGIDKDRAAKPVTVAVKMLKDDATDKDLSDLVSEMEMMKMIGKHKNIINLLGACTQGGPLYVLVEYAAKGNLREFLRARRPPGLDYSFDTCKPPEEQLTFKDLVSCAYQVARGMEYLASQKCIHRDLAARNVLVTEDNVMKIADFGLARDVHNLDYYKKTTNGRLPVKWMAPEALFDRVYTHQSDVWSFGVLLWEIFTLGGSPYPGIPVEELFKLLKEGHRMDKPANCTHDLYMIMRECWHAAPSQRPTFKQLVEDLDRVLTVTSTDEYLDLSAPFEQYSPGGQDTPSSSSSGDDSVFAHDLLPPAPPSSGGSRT
Chain of dephosphorylated FGFR2 (P21802 22-821): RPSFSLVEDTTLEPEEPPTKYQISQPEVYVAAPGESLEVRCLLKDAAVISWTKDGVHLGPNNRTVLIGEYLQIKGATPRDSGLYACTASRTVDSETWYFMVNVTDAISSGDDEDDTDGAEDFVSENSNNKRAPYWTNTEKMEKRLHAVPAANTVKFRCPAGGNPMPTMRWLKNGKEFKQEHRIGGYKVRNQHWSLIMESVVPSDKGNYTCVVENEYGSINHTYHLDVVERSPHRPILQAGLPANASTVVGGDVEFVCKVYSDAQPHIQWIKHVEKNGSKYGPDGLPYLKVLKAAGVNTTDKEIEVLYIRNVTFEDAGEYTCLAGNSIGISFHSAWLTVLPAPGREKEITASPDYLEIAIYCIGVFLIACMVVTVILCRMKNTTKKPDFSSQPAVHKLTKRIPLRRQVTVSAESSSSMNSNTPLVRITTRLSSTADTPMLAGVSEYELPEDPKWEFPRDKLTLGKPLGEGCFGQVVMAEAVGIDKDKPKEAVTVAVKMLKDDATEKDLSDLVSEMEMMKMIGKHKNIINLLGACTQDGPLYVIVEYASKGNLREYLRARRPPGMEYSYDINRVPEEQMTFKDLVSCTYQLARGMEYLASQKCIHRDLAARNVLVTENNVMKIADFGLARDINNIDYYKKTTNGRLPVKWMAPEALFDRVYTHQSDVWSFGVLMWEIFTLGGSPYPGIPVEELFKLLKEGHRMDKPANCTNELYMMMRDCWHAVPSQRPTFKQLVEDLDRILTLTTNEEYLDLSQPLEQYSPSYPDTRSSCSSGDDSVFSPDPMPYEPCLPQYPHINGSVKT
Chain of human wild type FGFR2 (P21802 22-821): as above

IC50 [1] [nM] | IC50 [2] [nM] | IC50 [3] [nM] | Structure (SMILES)
3 | 140 | 35 | C=CC(=O)N1CC(C(=O)N2CCC(n3cc(-c4cnc5ccc(Nc6cc(OC)cc(OC)c6)cc5n4)cn3)CC2)C1 [Example 1, 1-(3-(4-(4-(7-((3,5-dimethoxyphenyl)amino)quinoxalin-2-yl)-1H-pyrazol-1-yl)piperidine-1-carbonyl)azetidin-1-yl)prop-2-en-1-one]
5 | 69 | 89 | C=CC(=O)N1CCC(C(=O)N2CCC(n3cc(-c4cnc5ccc(Nc6cc(OC)cc(OC)c6)cc5n4)cn3)CC2)CC1 [Example 3, 1-(4-(4-(4-(7-((3,5-dimethoxyphenyl)amino)-quinoxalin-2-yl)-1H-pyrazol-1-yl)piperidine-1-carbonyl)piperidin-1-yl)prop-2-en-1-one]
